From the supplement of paper PMC9663587

Experiments:
THZ1 [1] = compound: T1, CN(C)C/C=C/C(=O)Nc1ccc(C(=O)Nc2cccc(Nc3ncc(Cl)c(-c4c[nH]c5ccccc45)n3)c2)cc1 [THZ1]; test: GR value, 72 h; higher = faster growth (1 = untreated, <0 = killing);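 also: breast cancer and non-malignant breast epithelial lines, nine half-log doses, viable cells counted by Hoechst and LIVE/DEAD dye imaging versus time-zero plates and DMSO controls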
Neratinib/HKI272 [2] = compound: T2, CCOc1cc2ncc(C#N)c(Nc3ccc(OCc4ccccn4)c(Cl)c3)c2cc1NC(=O)/C=C/CN(C)C [Neratinib/HKI272]; test: as above
THZ1 [3] = compound: T1, THZ1; test: increase in dead-cell fraction, 72 h; higher = more death;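 also: breast cancer cell lines in 384-well plates, stained with Hoechst plus LIVE/DEAD far red dye and imaged, cells above an LDR intensity threshold counted dead, Hoechst-negative corpses included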
Flavopiridol = compound: CN1CC[C@H](c2c(O)cc(O)c3c(=O)cc(-c4ccccc4Cl)oc23)[C@H](O)C1 [Flavopiridol]; test: as above
LEE011/Ribociclib = compound: CN(C)C(=O)c1cc2cnc(Nc3ccc(N4CCNCC4)cn3)nc2n1C1CCCC1 [LEE011/Ribociclib]; test: as above
[4] = compound: CCN1CCN(Cc2ccc(Nc3ncc(F)c(-c4cc(F)c5nc(C)n(C(C)C)c5c4)n3)nc2)CC1; test: as above
THZ531 = compound: CN(C)C/C=C/C(=O)Nc1ccc(C(=O)N2CCC[C@@H](Nc3ncc(Cl)c(-c4c[nH]c5ccccc45)n3)C2)cc1 [THZ531]; test: as above
[5] = compound: CCc1cnn2c(NCc3ccc[n+]([O-])c3)cc(N3CCCC[C@H]3CCO)nc12; test: as above
Neratinib/HKI272 [6] = compound: T2, Neratinib/HKI272; test: as above
BSJ-03-123 = compound: CC(=O)c1c(C)c2cnc(Nc3ccc(N4CCN(CCOCCOCCOCCNC(=O)COc5cccc6c5C(=O)N(C5CCC(=O)NC5=O)C6=O)CC4)cn3)nc2n(C2CCCC2)c1=O [BSJ-03-123]; test: as above
[7] = compound: CC(=O)c1c(C)c2cnc(Nc3ccc(N4CCNCC4)cn3)nc2n(C2CCCC2)c1=O; test: as above
YKL-5-124 = compound: C=CC(=O)Nc1ccc(C(=O)Nc2[nH]nc3c2CN(C(=O)N[C@H](CN(C)C)c2ccccc2)C3(C)C)cc1 [YKL-5-124]; test: as above

MDAMB415
GR value (THZ1 [1]; 0.0001 µM): 0.979 GR | GR value (THZ1 [1]; 0.0003162 µM): 0.999 GR | GR value (THZ1 [1]; 0.001 µM): 0.995 GR | GR value (THZ1 [1]; 0.003162 µM): 0.857 GR | GR value (THZ1 [1]; 0.01 µM): 0.797 GR | GR value (THZ1 [1]; 0.03162 µM): 0.524 GR | GR value (THZ1 [1]; 0.1 µM): 0.216 GR | GR value (THZ1 [1]; 0.3162 µM): -0.218 GR | GR value (THZ1 [1]; 1 µM): -0.408 GR | GR value (Neratinib/HKI272 [2]; 0.0003162 µM): 1.06 GR | GR value (Neratinib/HKI272 [2]; 0.001 µM): 1.08 GR | GR value (Neratinib/HKI272 [2]; 0.003162 µM): 1.13 GR | GR value (Neratinib/HKI272 [2]; 0.01 µM): 1.1 GR | GR value (Neratinib/HKI272 [2]; 0.03162 µM): 1.06 GR | GR value (Neratinib/HKI272 [2]; 0.1 µM): 0.989 GR | GR value (Neratinib/HKI272 [2]; 0.3162 µM): 0.889 GR | GR value (Neratinib/HKI272 [2]; 1 µM): 0.737 GR | GR value (Neratinib/HKI272 [2]; 3.162 µM): 0.0984 GR | increase in dead-cell fraction (THZ1 [3]; 0.0001 µM): 0.0048 | increase in dead-cell fraction (THZ1 [3]; 0.0003162 µM): 0.0014 | increase in dead-cell fraction (THZ1 [3]; 0.001 µM): 0.0046 | increase in dead-cell fraction (THZ1 [3]; 0.003162 µM): -0.0013 | increase in dead-cell fraction (THZ1 [3]; 0.01 µM): 0.0061 | increase in dead-cell fraction (THZ1 [3]; 0.03162 µM): 0.0106 | increase in dead-cell fraction (THZ1 [3]; 0.1 µM): 0.0295 | increase in dead-cell fraction (THZ1 [3]; 0.3162 µM): 0.0604 | increase in dead-cell fraction (THZ1 [3]; 1 µM): 0.13 | increase in dead-cell fraction (Flavopiridol; 0.0001 µM): 0.0065 | increase in dead-cell fraction (Flavopiridol; 0.0003162 µM): 0.0005 | increase in dead-cell fraction (Flavopiridol; 0.001 µM): 0.0075 | increase in dead-cell fraction (Flavopiridol; 0.003162 µM): 0.0004 | increase in dead-cell fraction (Flavopiridol; 0.01 µM): -0.0008 | increase in dead-cell fraction (Flavopiridol; 0.03162 µM): 0.002 | increase in dead-cell fraction (Flavopiridol; 0.1 µM): 0.0078 | increase in dead-cell fraction (Flavopiridol; 0.3162 µM): 0.0072 | increase in dead-cell fraction (Flavopiridol; 1 µM): 0.0932 | increase in dead-cell fraction (LEE011/Ribociclib; 0.001 µM): 0.0085 | increase in dead-cell fraction (LEE011/Ribociclib; 0.003162 µM): 0.0083 | increase in dead-cell fraction (LEE011/Ribociclib; 0.01 µM): 0.01 | increase in dead-cell fraction (LEE011/Ribociclib; 0.03162 µM): 0.0117 | increase in dead-cell fraction (LEE011/Ribociclib; 0.1 µM): 0.0179 | increase in dead-cell fraction (LEE011/Ribociclib; 0.3162 µM): 0.0109 | increase in dead-cell fraction (LEE011/Ribociclib; 1 µM): 0.0253 | increase in dead-cell fraction (LEE011/Ribociclib; 3.162 µM): 0.0174 | increase in dead-cell fraction (LEE011/Ribociclib; 10 µM): 0.0203 | increase in dead-cell fraction ([4]; 0.001 µM): 0.0027 | increase in dead-cell fraction ([4]; 0.003162 µM): 0.004 | increase in dead-cell fraction ([4]; 0.01 µM): 0.0062 | increase in dead-cell fraction ([4]; 0.03162 µM): 0.015 | increase in dead-cell fraction ([4]; 0.1 µM): 0.0137 | increase in dead-cell fraction ([4]; 0.3162 µM): 0.021 | increase in dead-cell fraction ([4]; 1 µM): 0.0176 | increase in dead-cell fraction ([4]; 3.162 µM): 0.0092 | increase in dead-cell fraction ([4]; 10 µM): 0.0164 | increase in dead-cell fraction (THZ531; 0.0001 µM): 0.003 | increase in dead-cell fraction (THZ531; 0.0003162 µM): 0.0003 | increase in dead-cell fraction (THZ531; 0.001 µM): 0.0038 | increase in dead-cell fraction (THZ531; 0.003162 µM): 0.0023 | increase in dead-cell fraction (THZ531; 0.01 µM): 0.0067 | increase in dead-cell fraction (THZ531; 0.03162 µM): 0.0049 | increase in dead-cell fraction (THZ531; 0.1 µM): 0.0372 | increase in dead-cell fraction (THZ531; 0.3162 µM): 0.104 | increase in dead-cell fraction (THZ531; 1 µM): 0.104 | increase in dead-cell fraction ([5]; 0.0001 µM): -0.001 | increase in dead-cell fraction ([5]; 0.0003162 µM): 0.0007 | increase in dead-cell fraction ([5]; 0.001 µM): -0.0017 | increase in dead-cell fraction ([5]; 0.003162 µM): 0.0007 | increase in dead-cell fraction ([5]; 0.01 µM): 0.0031 | increase in dead-cell fraction ([5]; 0.03162 µM): 0.0447 | increase in dead-cell fraction ([5]; 0.1 µM): 0.152 | increase in dead-cell fraction ([5]; 0.3162 µM): 0.12 | increase in dead-cell fraction ([5]; 1 µM): 0.154 | increase in dead-cell fraction (Neratinib/HKI272 [6]; 0.0003162 µM): -0.0004 | increase in dead-cell fraction (Neratinib/HKI272 [6]; 0.001 µM): 0 | increase in dead-cell fraction (Neratinib/HKI272 [6]; 0.003162 µM): 0.0031 | increase in dead-cell fraction (Neratinib/HKI272 [6]; 0.01 µM): -0.0015 | increase in dead-cell fraction (Neratinib/HKI272 [6]; 0.03162 µM): 0.0006 | increase in dead-cell fraction (Neratinib/HKI272 [6]; 0.1 µM): 0.0036 | increase in dead-cell fraction (Neratinib/HKI272 [6]; 0.3162 µM): 0.0023 | increase in dead-cell fraction (Neratinib/HKI272 [6]; 1 µM): 0.0057 | increase in dead-cell fraction (Neratinib/HKI272 [6]; 3.162 µM): 0.017 | increase in dead-cell fraction (BSJ-03-123; 0.001 µM): -0.001 | increase in dead-cell fraction (BSJ-03-123; 0.003162 µM): 0.0018 | increase in dead-cell fraction (BSJ-03-123; 0.01 µM): 0.0044 | increase in dead-cell fraction (BSJ-03-123; 0.03162 µM): 0.0034 | increase in dead-cell fraction (BSJ-03-123; 0.1 µM): 0.0066 | increase in dead-cell fraction (BSJ-03-123; 0.3162 µM): 0.0057 | increase in dead-cell fraction (BSJ-03-123; 1 µM): 0.0048 | increase in dead-cell fraction (BSJ-03-123; 3.162 µM): 0.0092 | increase in dead-cell fraction (BSJ-03-123; 10 µM): 0.0219 | increase in dead-cell fraction ([7]; 0.0003162 µM): 0.0016 | increase in dead-cell fraction ([7]; 0.001 µM): -0.0037 | increase in dead-cell fraction ([7]; 0.003162 µM): 0.0018 | increase in dead-cell fraction ([7]; 0.01 µM): -0.0004 | increase in dead-cell fraction ([7]; 0.03162 µM): 0.0059 | increase in dead-cell fraction ([7]; 0.1 µM): 0.0074 | increase in dead-cell fraction ([7]; 0.3162 µM): 0.0128 | increase in dead-cell fraction ([7]; 1 µM): 0.0178 | increase in dead-cell fraction ([7]; 3.162 µM): 0.0141 | increase in dead-cell fraction (YKL-5-124; 0.001 µM): 0.0047 | increase in dead-cell fraction (YKL-5-124; 0.003162 µM): -0.0002 | increase in dead-cell fraction (YKL-5-124; 0.01 µM): 0.0066 | increase in dead-cell fraction (YKL-5-124; 0.03162 µM): 0.0051 | increase in dead-cell fraction (YKL-5-124; 0.1 µM): 0.0109 | increase in dead-cell fraction (YKL-5-124; 0.3162 µM): 0.0176 | increase in dead-cell fraction (YKL-5-124; 1 µM): 0.0019 | increase in dead-cell fraction (YKL-5-124; 3.162 µM): 0.0153 | increase in dead-cell fraction (YKL-5-124; 10 µM): 0.0261
